Patent US10723699B2 (Hyundai Pharm Co., Ltd., priority 2015, dated 2020)
Like-named read-outs stand apart in the source and are kept apart here.

Biological target: T1, G protein-coupled receptor 119 (GPR-119) (Mesocricetus auratus, UniProt A0A1U8CD06)
T1 construct: hamster-derived β-cells containing G protein-coupled receptor 119 (GPR-119), HIT-T15 cells; host or cells: HIT-T15 (hamster pancreatic β-cells)
T1 sequence (A0A1U8CD06 1-334): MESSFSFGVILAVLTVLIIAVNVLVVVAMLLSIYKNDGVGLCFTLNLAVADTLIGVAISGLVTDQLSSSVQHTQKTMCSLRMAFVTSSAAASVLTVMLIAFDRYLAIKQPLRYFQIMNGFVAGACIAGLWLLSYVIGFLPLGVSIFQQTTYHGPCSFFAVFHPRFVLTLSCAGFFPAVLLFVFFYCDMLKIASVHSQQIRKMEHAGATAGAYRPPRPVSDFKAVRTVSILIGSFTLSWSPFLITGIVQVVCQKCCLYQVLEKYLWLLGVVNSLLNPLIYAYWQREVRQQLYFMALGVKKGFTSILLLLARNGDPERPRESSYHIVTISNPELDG
Assay: cAMP activity in HIT-T15 cells (cAMP dynamic kit, FRET)
Type: cell-based, hamster
Method: To check whether the cyclohexene derivatives according to the present invention activate cyclic adenosine monophosphate (cAMP), experiments were carried out, as follows.
The HIT-T15 cells were plated on a 96-well plate at 60,000 cells per well. On the next day of plating, the cells were treated with a varying concentration of each of the example compounds according to the present invention, and incubated at 37° C. for an hour. In this case, each of the treated compounds was used at six concentrations, ranging from 0.0032 to 10 μM, to treat the cells.
The cyclic adenosine monophosphate (cAMP) activity was measured according to the manufacturer's instruction using a cAMP dynamic kit commercially available from Cis Bio Inc. (Bedford, Mass.). The cells were lysed, and a level of cAMP was determined by a competitive immunoassay using D2-labeled cAMP and a cryptate-labeled anti-cAMP antibody. Fluorescence was read in Flex Station (Molecular Devices). […] Unlabeled cAMP in the cell lysate competed with the D2-labeled cAMP against the cryptate-labeled antibody. Since a decrease in the measured intensity of the FRET signals represents a level of cAMP in the cells, the cAMP activities of the compounds are calculated as a change in FRET signals by adjusting an amount of dimethyl sulfoxide (DMSO).

[1] = 1 hour at 37° C., six concentrations 0.0032 to 10 μM, read-out: EC50

| Compound | EC50 [1] | EC50 (Table 2, read-out: EC50 value) | EC50 (EC50 (nM), 1 hour at 37° C., six concentrations 0.0032 to 10 μM) | EC50 (EC50 value, Table 2) |
| --- | --- | --- | --- | --- |
| CC(C)c1noc(N2CCC(COc3ccc(C4=CCC(C(=O)N5CCOCC5)CC4)cn3)CC2)n1 (stereo not shown) [Example 317, (4-(6-((1-(3-isopropyl-1,2,4-oxadiazol-5-yl)piperidin-4-yl)methoxy)pyridin-3-yl)cyclohex-3-enyl)(morpholino)methanone] | 50 nM | ≤ 50 nM |  |  |
| CC(C)c1noc(N2CCC(COc3ccc(C4=CCC(C(=O)N5CCSCC5)CC4)cn3)CC2)n1 (stereo not shown) [Example 318, (4-(6-((1-(3-isopropyl-1,2,4-oxadiazol-5-yl)piperidin-4-yl)methoxy)pyridin-3-yl)cyclohex-3-enyl)(thiomorpholino)methanone] | 38 nM | ≤ 50 nM |  |  |
| CC(C)c1noc(N2CCC(COc3ccc(C4=CCC(C(=O)N5CCC(CCO)CC5)CC4)cn3)CC2)n1 (stereo not shown) [Example 320, (4-(2-hydroxyethyl)piperidin-1-yl)(4-(6-((1-(3-isopropyl-1,2,4-oxadiazol-5-yl)piperidin-4-yl)methoxy)pyridin-3-yl)cyclohex-3-enyl)methanone] | 53 nM |  |  |  |
| CCc1cnc(N2CCC(COc3ccc(C4=CCC(C(=O)N5CCC(C#N)CC5)CC4)cc3F)CC2)nc1 (stereo not shown) [Example 321, 1-(4-(4-((1-(5-ethylpyrimidin-2-yl)piperidin-4-yl)methoxy)-3-fluorophenyl)cyclohex-3-enecarbonyl)piperidine-4-carbonitrile] | 28 nM | ≤ 50 nM |  |  |
| CCc1cnc(N2CCC(COc3ccc(C4=CCC(C(=O)NCCF)CC4)cc3F)CC2)nc1 (stereo not shown) [Example 322, 4-(4-((1-(5-ethylpyrimidin-2-yl)piperidin-4-yl)methoxy)-3-fluorophenyl)-N-(2-fluoroethyl)cyclohex-3-enecarboxamide] | 62 nM |  |  |  |
| CCc1cnc(N2CCC(COc3ccc(C4=CCC(C(=O)N(CCO)CCO)CC4)cc3F)CC2)nc1 (stereo not shown) [Example 323, 4-(4-((1-(5-ethylpyrimidin-2-yl)piperidin-4-yl)methoxy)-3-fluorophenyl)-N,N-bis(2-hydroxyethyl)cyclohex-3-enecarboxamide] | 28 nM | ≤ 50 nM |  |  |
| CCc1cnc(N2CCC(COc3ccc(C4=CCC(C(=O)N5CCC(C(N)=O)CC5)CC4)cc3F)CC2)nc1 (stereo not shown) [Example 324, 1-(4-(4-((1-(5-ethylpyrimidin-2-yl)piperidin-4-yl)methoxy)-3-fluorophenyl)cyclohex-3-enecarbonyl)piperidine-4-carboxamide] | 27 nM | ≤ 50 nM |  |  |
| CC(C)(C)OC(=O)N1CCC(COc2ccc(C3=CCC(C(=O)N4CCC(CO)CC4)CC3)nc2)CC1 (stereo not shown) [Example 325, tert-butyl 4-((6-(4-(4-(hydroxymethyl)piperidine-1-carbonyl)cyclohex-1-enyl)pyridin-3-yloxy)methyl)piperidine-1-carboxylate] | 53 nM |  |  |  |
| CC(C)(C)OC(=O)N1CCC(COc2ccc(C3=CCC(C(=O)N4CCC(CCO)CC4)CC3)nc2)CC1 (stereo not shown) [Example 326, tert-butyl 4-((6-(4-(4-(2-hydroxyethyl)piperidine-1-carbonyl)cyclohex-1-enyl)pyridin-3-yloxy)methyl)piperidine-1-carboxylate] | 70 nM |  |  |  |
| CC(C)(C)OC(=O)N1CCC(COc2ccc(C3=CCC(C(=O)N4CCOCC4)CC3)nc2)CC1 (stereo not shown) [Example 327, tert-butyl 4-((6-(4-(morpholine-4-carbonyl)cyclohex-1-enyl)pyridin-3-yloxy)methyl)piperidine-1-carboxylate] | 80 nM |  |  |  |
| CC(C)(C)OC(=O)N1CCC(COc2ccc(C3=CCC(C(=O)N4CCSCC4)CC3)nc2)CC1 (stereo not shown) [Example 328, tert-butyl 4-((6-(4-(thiomorpholine-4-carbonyl)cyclohex-1-enyl)pyridin-3-yloxy)methyl)piperidine-1-carboxylate] | 21 nM | ≤ 50 nM |  |  |
| CC(C)c1noc(N2CCC(COc3ccc(C4=CCC(C(=O)N5CCC5)CC4)cc3F)CC2)n1 (stereo not shown) [Example 330, azetidin-1-yl(4-(3-fluoro-4-((1-(3-isopropyl-1,2,4-oxadiazol-5-yl)piperidin-4-yl)methoxy)phenyl)cyclohex-3-enyl)methanone] | 35 nM | ≤ 50 nM |  |  |
| CC(C)c1noc(N2CCC(COc3ccc(C4=CCC(C(=O)N5CCCC5)CC4)cc3F)CC2)n1 (stereo not shown) [Example 331, (4-(3-fluoro-4-((1-(3-isopropyl-1,2,4-oxadiazol-5-yl)piperidin-4-yl)methoxy)phenyl)cyclohex-3-enyl)(pyrrolidin-1-yl)methanone] | 11 nM | ≤ 50 nM |  |  |
| CC(C)c1noc(N2CCC(COc3ccc(C4=CCC(C(=O)N5CCCCC5)CC4)cc3F)CC2)n1 (stereo not shown) [Example 332, (4-(3-fluoro-4-((1-(3-isopropyl-1,2,4-oxadiazol-5-yl)piperidin-4-yl)methoxy)phenyl)cyclohex-3-enyl)(piperidin-1-yl)methanone] | 6.7 nM | ≤ 50 nM |  |  |
| CC(C)c1noc(N2CCC(COc3ccc(C4=CCC(C(=O)N5CCC(CO)CC5)CC4)cc3F)CC2)n1 (stereo not shown) [Example 333, (4-(3-fluoro-4-((1-(3-isopropyl-1,2,4-oxadiazol-5-yl)piperidin-4-yl)methoxy)phenyl)cyclohex-3-enyl)(4-(hydroxymethyl)piperidin-1-yl)methanone] | 30 nM | ≤ 50 nM |  |  |
| CC(C)c1noc(N2CCC(COc3ccc(C4=CCC(C(=O)N5CC(O)C5)CC4)cc3F)CC2)n1 (stereo not shown) [Example 334, (4-(3-fluoro-4-((1-(3-isopropyl-1,2,4-oxadiazol-5-yl)piperidin-4-yl)methoxy)phenyl)cyclohex-3-enyl)(3-hydroxyazetidin-1-yl)methanone] | 52 nM |  |  |  |
| CC(C)c1noc(N2CCC(COc3ccc(C4=CCC(C(=O)N5CCC(CCO)CC5)CC4)cc3F)CC2)n1 (stereo not shown) [Example 335, (4-(3-fluoro-4-((1-(3-isopropyl-1,2,4-oxadiazol-5-yl)piperidin-4-yl)methoxy)phenyl)cyclohex-3-enyl)(4-(2-hydroxyethyl)piperidin-1-yl)methanone] | 18 nM | ≤ 50 nM |  |  |
| CC(C)c1noc(N2CCC(COc3ccc(C4=CCC(C(=O)N5CCC(N6CCCC6)CC5)CC4)cc3F)CC2)n1 (stereo not shown) [Example 336, (4-(3-fluoro-4-((1-(3-isopropyl-1,2,4-oxadiazol-5-yl)piperidin-4-yl)methoxy)phenyl)cyclohex-3-enyl)(4-(pyrrolidin-1-yl)piperidin-1-yl)methanone] | 180 nM |  |  |  |
| CC(C)c1noc(N2CCC(COc3ccc(C4=CCC(C(=O)N5CC(=NO)C5)CC4)cn3)CC2)n1 (stereo not shown) [Example 337, (3-(hydroxyimino)azetidin-1-yl)(4-(6-((1-(3-isopropyl-1,2,4-oxadiazol-5-yl)piperidin-4-yl)methoxy)pyridin-3-yl)cyclohex-3-enyl)methanone] | 160 nM |  |  |  |
| CC(C)c1noc(N2CCC(COc3ccc(C4=CCC(C(=O)N5CCC(C#N)CC5)CC4)cn3)CC2)n1 (stereo not shown) [Example 338, 1-(4-(6-((1-(3-isopropyl-1,2,4-oxadiazol-5-yl)piperidin-4-yl)methoxy)pyridin-3-yl)cyclohex-3-enecarbonyl)piperidine-4-carbonitrile] | 40 nM | ≤ 50 nM |  |  |
| CC(C)c1noc(N2CCC(COc3ccc(C4=CCC(C(=O)N5CCC5)CC4)cn3)CC2)n1 (stereo not shown) [Example 339, azetidin-1-yl(4-(6-((1-(3-isopropyl-1,2,4-oxadiazol-5-yl)piperidin-4-yl)methoxy)pyridin-3-yl)cyclohex-3-enyl)methanone] | 120 nM |  |  |  |
| CC(C)(C)OC(=O)N1CCC(COc2ccc(C3=CCC(C(=O)N4CCC(C#N)CC4)CC3)nc2)CC1 (stereo not shown) [Example 340, tert-butyl 4-((6-(4-(4-cyanopiperidine-1-carbonyl)cyclohex-1-enyl)pyridin-3-yloxy)methyl)piperidine-1-carboxylate] | 28 nM | ≤ 50 nM |  |  |
| CN(CCO)C(=O)C1CC=C(c2ccc(OCC3CCN(C(=O)OC(C)(C)C)CC3)cn2)CC1 (stereo not shown) [Example 341, tert-butyl 4-((6-(4-((2-hydroxyethyl)(methyl)carbamoyl)cyclohex-1-enyl)pyridin-3-yloxy)methyl)piperidine-1-carboxylate] | 180 nM |  |  |  |
| CC(C)(C)OC(=O)N1CCC(COc2ccc(C3=CCC(C(=O)N4CCC(=NO)CC4)CC3)nc2)CC1 (stereo not shown) [Example 344, tert-butyl 4-((6-(4-(4-(hydroxyimino)piperidine-1-carbonyl)cyclohex-1-enyl)pyridin-3-yloxy)methyl)piperidine-1-carboxylate] | 45 nM | ≤ 50 nM |  |  |
| CC(C)c1noc(N2CCC(COc3ccc(C4=CCC(C(=O)N5CCC(=O)CC5)CC4)cc3F)CC2)n1 (stereo not shown) [Example 345, 1-(4-(3-fluoro-4-((1-(3-isopropyl-1,2,4-oxadiazol-5-yl)piperidin-4-yl)methoxy)phenyl)cyclohex-3-enecarbonyl)piperid in-4-one] |  |  | 36 nM | ≤ 50 nM |
